The text below walks through data of patent publication US4678781A, “3-substituted-aminomethyl cephalosporin derivatives” (ICI Pharma, priority 1983, dated 1987).

One series relates to Prot. mirabilis. Nature of the series: MIC, agar-dilution technique, standard in vitro test. The series is classed as cell-based. The following applies: Proteus mirabilis; strain code A8432057; Isosensitest agar; inoculum 10^4 CFU./spot; read-out: minimum inhibitory concentration (MIC). From the text:
(§1) The results set out in the following Table are illustrative of the biological activity of the compounds of the present invention. The listed compounds all carry a 1-methyl-4-pyridinioaminomethyl radical at the 3-position of the cephalosporin nucleus and a variety of known substituents at the 7-position. The following results are those obtained on a standard in vitro test system and using Isosensitest agar medium. The antibacterial activity is described in terms of the minimum inhibitory concentration (MIC) determined by agar-dilution technique with an inoculum size of 10^4 CFU./spot.

The test system of the next series is Strep. pyogenes. Described as above. The series is classed as cell-based. The following applies: Streptococcus pyogenes; strain code A8681018; Isosensitest agar; inoculum 10^4 CFU./spot; read-out: minimum inhibitory concentration (MIC).
Text: as §1

A further series deals with P. aeruginosa. Described as above. The series is classed as cell-based. The following applies: Pseudomonas aeruginosa; strain code A8101028; Isosensitest agar; inoculum 10^4 CFU./spot; read-out: minimum inhibitory concentration (MIC).
Text: as §1

For another series, the system named is Staph. aureus. The series is described as above. The series is classed as cell-based. Conditions: Staphylococcus aureus; strain code A8601052; Isosensitest agar; inoculum 10^4 CFU./spot; read-out: minimum inhibitory concentration (MIC).
Text: as §1

The next series has as its system Kleb. aerogenes. Described as above. The following applies: Klebsiella aerogenes; strain code A8391027; Isosensitest agar; inoculum 10^4 CFU./spot; read-out: minimum inhibitory concentration (MIC). The series is classed as cell-based.
Text: as §1

For a further series, the system named is E. coli. The series is described as above. The series is classed as cell-based. The following applies: Escherichia coli; strain code A8341098; Isosensitest agar; inoculum 10^4 CFU./spot; read-out: minimum inhibitory concentration (MIC).
Text: as §1

Another series deals with Sal. dublin. The description is as above. The series is classed as cell-based. The following applies: Salmonella enterica; strain code A8369001; Isosensitest agar; inoculum 10^4 CFU./spot; read-out: minimum inhibitory concentration (MIC).
Text: as §1

In a further series the test system is Serr. marcescens. The series is described as above. The series is classed as cell-based. The following applies: Serratia marcescens; strain code A8421020; Isosensitest agar; inoculum 10^4 CFU./spot; read-out: minimum inhibitory concentration (MIC).
Text: as §1

The test system of the next series is Ent. cloacae. The series is described as above. The series is classed as cell-based. Conditions: Enterobacter cloacae; strain code A8401054; Isosensitest agar; inoculum 10^4 CFU./spot; read-out: minimum inhibitory concentration (MIC).
Text: as §1

A short description of series [1]: Toxicity observation in mice after subcutaneous administration. The series is classed as in vivo. Conditions: two single doses over one day, each at least five times the PD50 against Salmonella dublin. How it is done:
A number of compounds were administered to mice at doses in excess of those required to afford protection against bacterial infections. Thus for example the compounds of Examples 23, 70 and 74 were administered subcutaneously to mice in two single doses over one day, each dose being at least five times the minimum effective dose which protected 50% of the mice against infection with Salmonella dublin (PD50).

Each structure is given as a SMILES string. Converted amounts (≈) assume the structure as drawn. A value given as a limit tells only on which side of the number the result lay.

As for `CCN1CCN(C(=O)N[C@@H](C(=O)N[C@@H]2C(=O)N3C(C(=O)[O-])=C(CNc4cc[n+](C)cc4)CS[C@H]23)c2ccc(O)cc2)C(=O)C1=O` [Example 81], the MIC in the series on Prot. mirabilis is 32 µg/mL (≈ 50.2 µM); in the series with Strep. pyogenes, 0.13 µg/mL (≈ 0.204 µM); with P. aeruginosa, more than 128 µg/mL; in the series with Staph. aureus it was 1 µg/mL (≈ 1.57 µM); in the series on Kleb. aerogenes, 2 µg/mL (≈ 3.14 µM); with E. coli, 2 µg/mL (≈ 3.14 µM). Further, the values for the MIC in the series with Sal. dublin, with Serr. marcescens and in the series on Ent. cloacae were 8 µg/mL (≈ 12.5 µM), 8 µg/mL (≈ 12.5 µM) and 4 µg/mL (≈ 6.27 µM), respectively.

As for `C[n+]1ccc(NCC2=C(C(=O)[O-])N3C(=O)[C@@H](NC(=O)/C(=N\OC4(C(=O)O)CCC4)c4csc(N)n4)[C@H]3SC2)cc1` [Example 74], the “overt toxic symptoms or side effects” value in series [1] is “No overt toxic symptoms or side effects attributable to the administered compounds were noted”. Also, the MIC in the series with Prot. mirabilis came out at 0.13 µg/mL (≈ 0.221 µM); in the series on Strep. pyogenes it was 0.25 µg/mL (≈ 0.425 µM); in the series with P. aeruginosa, 4 µg/mL (≈ 6.81 µM); in the series on Staph. aureus, 8 µg/mL (≈ 13.6 µM); with Kleb. aerogenes it was 0.5 µg/mL (≈ 0.851 µM); in the series on E. coli it was 0.25 µg/mL (≈ 0.425 µM). For the same compound, the MIC in the series with Sal. dublin is 0.13 µg/mL (≈ 0.221 µM); with Serr. marcescens, 1 µg/mL (≈ 1.7 µM); in the series on Ent. cloacae it was 1 µg/mL (≈ 1.7 µM).

Take `C[n+]1ccc(NCC2=C(C(=O)[O-])N3C(=O)[C@@H](NC(=O)/C(=N\OC(C)(C)C(=O)O)c4csc(N)n4)[C@H]3SC2)cc1` [Example 23]: in [1], the “overt toxic symptoms or side effects” value was “No overt toxic symptoms or side effects attributable to the administered compounds were noted”. The MIC with Prot. mirabilis amounted to 0.064 µg/mL (≈ 0.111 µM); in the series on Strep. pyogenes it was 0.13 µg/mL (≈ 0.226 µM); in the series on P. aeruginosa it was 2 µg/mL (≈ 3.47 µM); in the series on Staph. aureus, 8 µg/mL (≈ 13.9 µM); with Kleb. aerogenes, 0.13 µg/mL (≈ 0.226 µM); in the series on E. coli, 0.13 µg/mL (≈ 0.226 µM). Also, the MIC with Sal. dublin stood at 0.25 µg/mL (≈ 0.434 µM); in the series on Serr. marcescens, 0.25 µg/mL (≈ 0.434 µM); with Ent. cloacae, 0.5 µg/mL (≈ 0.869 µM).

`C=CCO/N=C(\C(=O)N[C@@H]1C(=O)N2C(C(=O)[O-])=C(CNc3cc[n+](C)cc3)CS[C@H]12)c1csc(N)n1` [Example 70]: the “overt toxic symptoms or side effects” value in series [1] is given as “No overt toxic symptoms or side effects attributable to the administered compounds were noted”. In addition, the MIC is 0.5 µg/mL (≈ 0.944 µM) in the series with Prot. mirabilis; less than 0.016 µg/mL with Strep. pyogenes; 32 µg/mL (≈ 60.4 µM) in the series with P. aeruginosa; 1 µg/mL (≈ 1.89 µM) in the series on Staph. aureus; 0.13 µg/mL (≈ 0.245 µM) in the series with Kleb. aerogenes; 0.25 µg/mL (≈ 0.472 µM) with E. coli. Also, the MIC in the series with Sal. dublin worked out at 0.5 µg/mL (≈ 0.944 µM); in the series on Serr. marcescens, 0.5 µg/mL (≈ 0.944 µM); in the series on Ent. cloacae, 1 µg/mL (≈ 1.89 µM).

On to `C[n+]1ccc(NCC2=C(C(=O)[O-])N3C(=O)[C@@H](NC(=O)/C(=N\OCC#N)c4csc(N)n4)[C@H]3SC2)cc1` [Example 96], for which the MIC in the series with Prot. mirabilis was 0.064 µg/mL (≈ 0.121 µM); with P. aeruginosa it was 32 µg/mL (≈ 60.5 µM); in the series on Staph. aureus, 0.5 µg/mL (≈ 0.946 µM); in the series with Kleb. aerogenes it was less than 0.016 µg/mL; in the series on E. coli, 0.032 µg/mL (≈ 0.0605 µM); in the series with Sal. dublin, 0.064 µg/mL (≈ 0.121 µM). Also, the MIC in the series on Serr. marcescens came out at 0.032 µg/mL (≈ 0.0605 µM); in the series on Ent. cloacae, 0.25 µg/mL (≈ 0.473 µM).

For `CO/N=C(\C(=O)N[C@@H]1C(=O)N2C(C(=O)O)=C(CNc3cc[n+](C)cc3)CS[C@H]12)c1csc(N)n1` [Example 9], the MIC with Prot. mirabilis came out at 0.064 µg/mL; with Strep. pyogenes it was 0.016 µg/mL; in the series on P. aeruginosa, 16 µg/mL; in the series with Staph. aureus, 1 µg/mL; with Kleb. aerogenes, 0.032 µg/mL; in the series with E. coli, 0.032 µg/mL. The values for the MIC in the series with Sal. dublin, with Serr. marcescens and in the series on Ent. cloacae were 0.25 µg/mL, 0.13 µg/mL and 0.064 µg/mL, respectively.

`C[n+]1ccc(NCC2=C(C(=O)[O-])N3C(=O)[C@@H](NC(=O)[C@H](NC(=O)c4n[nH]c(=O)nc4O)c4ccc(O)cc4)[C@H]3SC2)cc1` [Example 82]: the MIC in the series with Prot. mirabilis was 32 µg/mL (≈ 52.6 µM); in the series with Strep. pyogenes, 0.5 µg/mL (≈ 0.822 µM); in the series on P. aeruginosa it was more than 12 µg/mL; in the series with Staph. aureus, 2 µg/mL (≈ 3.29 µM); with Kleb. aerogenes, 64 µg/mL (≈ 105 µM); in the series on E. coli it was 128 µg/mL (≈ 210 µM). The MIC is 64 µg/mL (≈ 105 µM) with Sal. dublin, more than 128 µg/mL in the series on Serr. marcescens and more than 128 µg/mL in the series with Ent. cloacae.
